Measurements as given in patent publication US12012401B2, “Process for preparing N-(5-(3-(7-(3-fluorophenyl)-3H-imidazo[4,5-c]pyridin-2-yl)-1H-indazol-5-yl)pyridin-3-yl)-3-methylbutanamide” (BioSplice Therapeutics, Inc., priority 2016, dated 2024).

Legend:
Type in all cases: physicochemical
[1] = Competitive reslurry experiments between polymorph forms (thermodynamic stability); details: water at RT and 50° C.; 3-5 days
Description: In order to find out the thermodynamic stability between the different forms, several competitive reslurry experiments were carried out. Form 1, Form 2, Form 2*, Form 3, Form 4, Form 4*, Form 4**, Form 5, Form 7, Form 8, Form 9, Form 10, Form 11, Form 11*, and Form 13 (10 mg for each) were mixed and slurried in 2 mL of solvent at both RT and 50° C. The solids were slurried for 3-5 days and then analyzed by XRD.

[2] = Dynamic vapor sorption (DVS) scan; details: at 90% RH
Excerpt: The purity of the Form 13 sample was 98.8%; the KF of an undried Form 13 sample was 35.7%.

[3] = Heating in DSC chamber, then XRD scan (form conversion)
Description: The Form 1 solid was heated in a DSC chamber to 305° C. (past the endotherm/exotherm around 280° C.), and then scanned by XRD. […] Thus, the endotherm/exotherm around 280° C. might be due to melting/crystallization events.
The Form 2 solid was heated in a DSC machine to 90° C. (past the endotherm between 50-100° C.); to 270° C. (past the endotherm/exotherm around 240° C.); and finally to 330° C. (past the exotherm […]). The residual solid was analyzed by XRD. […] The endotherm between 50-100° C. might be free solvent or hydrate. […] Thus, the exotherm around 290° C. was a re-crystallization event. According to an XRD and DSC overlay, the behavior of Form 2* was similar to Form 2.
Form 13 solid was heated in a DSC chamber to 170° C. (past the endotherm between 50-100° C.), and then scanned by XRD. […] It can be concluded that the endotherm between 50-100° C. is due to bonded water.
Form 13 solid was heated in a DSC chamber to 330° C. (past the endotherm/exotherm around 300° C.), and then scanned by XRD. […] It can be concluded that the endotherm/exotherm is due to melting/crystallization events.

[4] = Competitive reslurry of Form 1, Form 9 and Form 13 (stability of Form 13 vs Form 9); details: toluene, IPAc, n-butyl acetate; 3 days at RT and 50° C.
Description: In order to find out the thermodynamic stability between Form 13 and Form 9, several competitive reslurry experiments were carried out. 15 mg of Form 1, Form 9 and Form 13 solids were mixed in 1 mL of toluene, IPAc, and n-butyl acetate, and slurried for 3 days at RT and 50° C.
The residual solid was analyzed by XRD.

[5] = Reslurry experiments in various solvents (polymorph screen)
Description: Reslurry experiments in various solvents were performed. Approximately 30-80 mg of the starting solid (a non-stoichiometric hydrate of Form 1 having between 1% and about 20% by weight water) was slurried in 39 different solvents (pure and binary solvents; the ratio of organic solvent/water (V/V) was 95%/5%) at RT and 50° C. for 5 days. Three solvates, one non-stoichiometric hydrate, and eleven non-solvated forms were identified. […] XRD of both wet and dry samples were scanned (FIG. 12A (dry sample)).

[6] = Form conversion on drying (XRD); details: upon drying
Description: The Form 1 solid was dried at 75° C. under vacuum overnight, and XRD, DSC, and TGA scans were performed. […] However, the DSC scans indicated the absence of endotherm. The loss of the early peak on the DSC scan had no effect on the XRD trace, showing that the endotherm between 50-100° C. on DSC scan was due to the free solvent. The purity of the Form 13 sample was 98.8%; the KF of an undried Form 13 sample was 35.7%. […] Solvates 1 and 2 solids were exposed to air overnight, and then analyzed by XRD. After the analysis, the solids were dried at 50° C. under vacuum, and then analyzed by XRD again.

[7] = Solubility of the starting solid by the gravimetric method; details: at RT and at 50° C. in all solvents tested except DMF and DMSO
[8] = Acetontrile/water (5% water), 50° C.
[9] = Heptane/water (5% water), 50° C.
[10] = Toluene/water (5% water), 50° C.
[11] = n-Butanol/water (5% water), 50° C.
[12] = n-Butyl acetate/water (5% water), 50° C.
[13] = n-Butyl acetate/water (5% water), RT

CC(C)CC(=O)Nc1cncc(-c2ccc3[nH]nc(-c4nc5c(-c6cccc(F)c6)cncc5[nH]4)c3c2)c1 [Form 13, N-(5-(3-(7-(3-fluorophenyl)-3H-imidazo[4,5-c]pyridin-2-yl)-1H-indazol-5-yl)pyridin-3-yl)-3-methylbutanamide]
thermodynamic stability in competitive reslurry [1]: most stable
water absorption (DVS scan) [2]: 17%
form after heating (XRD) ([3]; heated in a DSC chamber to 170° C.): converted to Form 1
form after heating (XRD) ([3]; heated to 330° C.): converted to Form 9
thermodynamic stability between Form 13 and Form 9 [4]: difficult to tell which one was more stable
Form; Dry [5, 8]: Form 13
Form; Wet [5, 8]: Form 13
Form; Dry ([5]; DCM, 50° C.): Form 13
Form; Wet ([5]; DCM, 50° C.): Form 13
Form; Dry ([5]; DCM/water (5% water), 50° C.): Form 1
Form; Wet ([5]; DCM/water (5% water), 50° C.): Form 13
Form; Dry ([5]; DCM/water (5% water), RT): Form 1
Form; Wet ([5]; DCM/water (5% water), RT): Form 13
Form; Dry ([5]; Heptane, 50° C.): Form 13
Form; Wet ([5]; Heptane, 50° C.): Form 13
Form; Dry [5, 9]: Form 1
Form; Wet [5, 9]: Form 13
Form; Dry ([5]; Heptane/water (5% water), RT): Form 12
Form; Wet ([5]; Heptane/water (5% water), RT): Form 13
Form; Dry ([5]; IPAc/water (5% water), 50° C.): Form 13
Form; Wet ([5]; IPAc/water (5% water), 50° C.): Form 13
Form; Dry ([5]; MA/water (5% water), RT): Form 1
Form; Wet ([5]; MA/water (5% water), RT): Form 13
Form; Dry ([5]; MIBK/water (5% water), 50° C.): Form 1
Form; Wet ([5]; MIBK/water (5% water), 50° C.): Form 13
Form; Dry ([5]; MeOH, RT): Form 1
Form; Wet ([5]; MeOH, RT): Form 13
Form; Dry ([5]; MeOH/water (5% water), 50° C.): Form 13
Form; Wet ([5]; MeOH/water (5% water), 50° C.): Form 13
Form; Dry ([5]; MtBE/water (5% water), 50° C.): Form 13
Form; Wet ([5]; MtBE/water (5% water), 50° C.): Form 13
Form; Dry [5, 10]: Form 13
Form; Wet [5, 10]: Form 13
Form; Dry ([5]; Toluene/water (5% water), RT): Form 1
Form; Wet ([5]; Toluene/water (5% water), RT): Form 13
Form; Dry [5, 11]: Form 1
Form; Wet [5, 11]: Form 13
Form; Dry ([5]; n-Butanol/water (5% water), RT): Form 13
Form; Wet ([5]; n-Butanol/water (5% water), RT): Form 13
Form; Dry [5, 12]: Form 1
Form; Wet [5, 12]: Form 13
Form; Dry [5, 13]: Form 12
Form; Wet [5, 13]: Form 13
Form; Dry ([5]; water, 50° C.): Form 13
Form; Wet ([5]; water, 50° C.): Form 13
Form; Dry ([5]; water, RT): Form 1
Form; Wet ([5]; water, RT): Form 13
form change upon drying [6]: converted to Form 1

CC(C)CC(=O)Nc1cncc(-c2ccc3[nH]nc(-c4nc5c(-c6cccc(F)c6)cncc5[nH]4)c3c2)c1 [starting solid, N-(5-(3-(7-(3-fluorophenyl)-3H-imidazo[4,5-c]pyridin-2-yl)-1H-indazol-5-yl)pyridin-3-yl)-3-methylbutanamide]
Solubility (in words) [7]: low solubility
